{
  "source": "PubChem BioAssay AID1259409",
  "about": "(Chemical Carcinogenesis Research Information System (CCRIS), 2018)",
  "origin": "cited, not measured here",
  "test_system": "rodent chemically induced tumor inhibition, incidence and multiplicity",
  "assay": "CCRIS tumor inhibitor studies",
  "conditions": "Route [Inhibitor]: ORAL, Species: RAT, Promoter: NONE USED",
  "data": [
    {"molecule": "O=P(O)(O)OC1C(OP(=O)(O)O)C(OP(=O)(O)O)C(OP(=O)(O)O)C(OP(=O)(O)O)C1OP(=O)(O)O", "note": "(stereo unspecified)", "values": [
      {"measurement": "tumour outcome (control, treated, inhibition, significance)", "setting": "Carcinogen: 7,12-DIMETHYLBENZ[A]ANTHRACENE, 57-97-6, Dose [Inhibitor]: 0, 2% IN DIET FOR 35 WK BEGINNING POST CARCINOGEN DOSE (STUDY DURATION: 36 WK), Strain/Sex: SPRAGUE-DAWLEY/FEMALE, Target Tissue: Type of Lesion: EAR DUCT: TUMOR, Dose [Carcinogen]: 50 MG/KG BW IN CORN OIL ONCE", "value": "5/15 (33%), 2/15 (13%), 61%, not significant"},
      {"measurement": "tumour outcome (control, treated, inhibition, significance)", "setting": "Carcinogen: 7,12-DIMETHYLBENZ[A]ANTHRACENE, 57-97-6, Dose [Inhibitor]: 0, 2% IN DIET FOR 35 WK BEGINNING POST CARCINOGEN DOSE (STUDY DURATION: 36 WK), Strain/Sex: SPRAGUE-DAWLEY/FEMALE, Target Tissue: Type of Lesion: MAMMARY GLAND: ADENOCARCINOMA OR FIBROADENOMA, Dose [Carcinogen]: 50 MG/KG BW IN CORN OIL ONCE", "value": "14/15 (93%), 15/15 (100%), -8%, not significant"},
      {"measurement": "tumour outcome (control, treated, inhibition, significance)", "setting": "Carcinogen: 7,12-DIMETHYLBENZ[A]ANTHRACENE, 57-97-6, Dose [Inhibitor]: 0, 15 MILLIMOLAR IN DRINKING WATER BEGINNING 1 WK PRIOR TO CARCINOGEN DOSE AND CONTINUING FOR 16 WK (STUDY DURATION: 16, Strain/Sex: SPRAGUE-DAWLEY/FEMALE, Target Tissue: Type of Lesion: MAMMARY GLAND: CARCINOMA, Dose [Carcinogen]: 20 MG IN 1 ML SESAME OIL ONCE", "value": "7/10 (70%), 17/21 (81%), -16%, not calculated"},
      {"measurement": "tumour outcome (control, treated, inhibition, significance)", "setting": "Carcinogen: 7,12-DIMETHYLBENZ[A]ANTHRACENE, 57-97-6, Dose [Inhibitor]: 0, 15 MILLIMOLAR IN DRINKING WATER FOR 47 WK BEGINNING 2 WK PRIOR TO CARCINOGEN DOSE (STUDY DURATION: 47 WK), Strain/Sex: SPRAGUE-DAWLEY/FEMALE, Target Tissue: Type of Lesion: MAMMARY GLAND: TUMOR, Dose [Carcinogen]: 5 MG IN 1 ML CORN OIL ONCE", "value": "37/40 (93%), 27/38 (71%), 24%, p<0.05"},
      {"measurement": "tumour outcome (control, treated, inhibition, significance)", "setting": "Carcinogen: AZOXYMETHANE, 25843-45-2, Dose [Inhibitor]: 0, 2% IN A HIGH FAT LOW FIBER DIET FOR DURATION OF STUDY BEGINNING 3 WK PRIOR TO CARCINOGEN TREATMENT (STUDY DURATION: 3, Strain/Sex: SPRAGUE-DAWLEY/FEMALE, Target Tissue: Type of Lesion: COLON: TUMOR, Dose [Carcinogen]: 15 MG/KG BW 1/WK FOR 2 WK", "value": "65%, 30%, 54%, p<0.05"},
      {"measurement": "tumour outcome (control, treated, inhibition, significance)", "setting": "Carcinogen: AZOXYMETHANE, 25843-45-2, Dose [Inhibitor]: 0, 2% IN DRINKING WATER BEGINNING 1 WK POST CARCINOGEN DOSE AND CONTINUING FOR DURATION OF STUDY (STUDY DURATION: 36 WK), Strain/Sex: F344/MALE, Target Tissue: Type of Lesion: COLON: CARCINOMA, Dose [Carcinogen]: 30 MG/KG ONCE AT 6 WK OF AGE", "value": "10/12 (83%), 3/12 (25%), 70%, p=0.0045"},
      {"measurement": "tumour outcome (control, treated, inhibition, significance)", "setting": "Carcinogen: AZOXYMETHANE, 25843-45-2, Dose [Inhibitor]: 1% IN DRINKING WATER BEGINNING 1 WK PRIOR TO FIRST CARCINOGEN DOSE (STUDY DURATION: 9 MO), Strain/Sex: F344/MALE, Target Tissue: Type of Lesion: LARGE INTESTINE: CARCINOMA, Dose [Carcinogen]: 8 MG/KG BW INJECTED IN HIND LEG 1/WK FOR 12 WK", "value": "100%, 100%, 0%, not significant"},
      {"measurement": "tumour outcome (control, treated, inhibition, significance)", "setting": "Carcinogen: AZOXYMETHANE, 25843-45-2, Dose [Inhibitor]: 2% IN DRINKING WATER BEGINNING 2 WK POST LAST CARCINOGEN DOSE (STUDY DURATION: 10 MO), Strain/Sex: F344/MALE, Target Tissue: Type of Lesion: COLON: TUMOR, Dose [Carcinogen]: 8 MG/KG BW INJECTED IN HIND LEG 1/WK FOR 4 WK", "value": "43%, 10%, 77%, not calculated"},
      {"measurement": "tumour outcome (control, treated, inhibition, significance)", "setting": "Carcinogen: N-METHYL-N-NITROSOUREA, 684-93-5, AZOXYMETHANE, 25843-45-2, Carcinogen: N-METHYL-N-NITROSOUREA, 684-93-5, AZOXYMETHANE, 25843-45-2, Dose [Inhibitor]: 0, 2% IN A HIGH FAT LOW FIBER DIET FOR DURATION OF STUDY BEGINNING 2 WK PRIOR TO CARCINOGEN TREATMENT (STUDY DURATION: 3, Strain/Sex: SPRAGUE-DAWLEY/FEMALE, Target Tissue: Type of Lesion: COLON: TUMOR, Dose [Carcinogen]: 50 MG/KG BW MNU ONCE FOLLOWED BY 15 MG/KG BW AOM 1/WK FOR 2 WK", "value": "70%, 30%, 57%, p<0.05"},
      {"measurement": "tumour outcome (control, treated, inhibition, significance)", "setting": "Carcinogen: N-METHYL-N-NITROSOUREA, 684-93-5, AZOXYMETHANE, 25843-45-2, Carcinogen: N-METHYL-N-NITROSOUREA, 684-93-5, AZOXYMETHANE, 25843-45-2, Dose [Inhibitor]: 0, 2% IN A HIGH FAT LOW FIBER DIET FOR DURATION OF STUDY BEGINNING 2 WK PRIOR TO CARCINOGEN TREATMENT (STUDY DURATION: 3, Strain/Sex: SPRAGUE-DAWLEY/FEMALE, Target Tissue: Type of Lesion: MAMMARY GLAND: CARCINOMA, Dose [Carcinogen]: 50 MG/KG BW MNU ONCE FOLLOWED BY 15 MG/KG BW AOM 1/WK FOR 2 WK", "value": "100%, 50%, 50%, p<0.05"},
      {"measurement": "tumour outcome (control, treated, inhibition, significance)", "setting": "Carcinogen: N-METHYL-N-NITROSOUREA, 684-93-5, Dose [Inhibitor]: 0, 2% IN HIGH FAT LOW FIBER DIET FOR DURATION OF STUDY BEGINNING 2 WK PRIOR TO CARCINOGEN TREATMENT (STUDY DURATION: 32, Strain/Sex: SPRAGUE-DAWLEY/FEMALE, Target Tissue: Type of Lesion: MAMMARY GLAND: CARCINOMA, Dose [Carcinogen]: 50 MG/KG BW ONCE", "value": "95%, 40%, 58%, p<0.05"}
    ]}
  ]
}
